Values after ≈ are worked out from the molar mass of the structure shown. Values joined by “and” are separate entries in the source; they are usually repeats but may differ in a detail not shown here. Identical values can stand only once. Like-named read-outs stand apart in the source and are kept apart here.
Experiments:
[1] = system: MRC-5SV2 (human lung fibroblast cell line); experiment: Toxicity against MRC-5SV2; assay type: cell-based
Method: (§1) ADME and toxicity for compounds were measured according to procedures outlined in the manuscript submitted in parallel to this one;2 other procedures were used for those compounds analysed by Monash University (in vitro ADME) or UCL (toxicity), both described in the main

[2] = system: Enterococcus faecalis ATCC 51299 (vanA-positive; vancomycin-resistant); experiment: In vitro antibacterial activity, MIC (UCL), VRE; assay type: cell-based
Procedure, shortened: (§2)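 Broth microdilution in isosensitest broth; inoculum from overnight tryptone soya agar culture adjusted to A600 0.1 (~1 × 10^8 CFU/mL) then diluted 1:100. Compounds tested as 2-fold series, 32 to 0.03 μg/mL, DMSO at most 2%; vancomycin as quality control.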

[3] = system: Staphylococcus aureus NCTC 13373 (mecA-positive; methicillin-resistant); experiment: In vitro antibacterial activity, MIC (UCL School of Pharmacy assay), MRSA; assay type: cell-based; conditions: for MIC: Staphylococcus aureus
Procedure, shortened: as §2

[4] = system: S. aureus ATCC 25923 (methicillin-susceptible); experiment: In vitro antibacterial activity, MIC (UCL), MSSA; assay type: cell-based, Staphylococcus aureus; conditions: for MIC: Staphylococcus aureus
Procedure, shortened: as §2

VSE = experiment: In vitro antibacterial activity, MIC, VSE; assay type: cell-based
[5] = system: PMM (primary mouse macrophages); experiment: Toxicity against PMM; assay type: cell-based
Method: as §1

[6] = Human plasma protein binding (PPB); assay type: in vitro ADME; conditions: human, plasma, human plasma, NEU; read-out: Human PPB (NEU) (converted)
Excerpt: (§3) To guide our initial SAR exploration work, we obtained liver microsomal intrinsic clearance data for 5 of the 18 compounds assayed by CO-ADD (Supporting Information - CDCO Report and Supporting Information - Biology). We then acquired intrinsic clearance (CLint), plasma protein binding (PPB), and solubility data on further compounds throughout the SAR campaign (Supporting Information - Biology, Tables S3 and S4).
(§4) Table S4. ADME and Pharmacokinetics: compounds only appearing in the Supplementary […]
(§5) MRSA Aqueous HLM CLint Rat Hep CLint
(§6) Cmpd MIC Solubility Human PPB (%) (µL/min/mg (µL/min/10x6 LogD7.4
(§7) (µg/mL) (µM) protein) cells)
as §1

Aqueous solubility = assay type: physicochemical; conditions: NEU
Excerpt: as §3, with “S4). […] The more polar compounds (lower LogD) had reduced PPB and were more metabolically stable.” for “S4).”
as §4, §5, §6, §7, §1

[7] = Human liver microsome intrinsic clearance; assay type: in vitro ADME; conditions: human liver microsomes, NEU
Excerpt: as §3, §4, §5, §6, §7, §1

[8] = Rat hepatocyte intrinsic clearance; assay type: in vitro ADME; conditions: rat hepatocytes, NEU
Excerpt: as §3, §4, §5, §6, §7, §1

c1ccc(Cn2c(-c3ccccn3)nc3ccccc32)cc1 [compound 993]
MRC5 TC50 [1]: 18.3 µg/mL
VRE MIC [2]: > 32 µg/mL
MRSA MIC [3]: > 32 µg/mL and 32 µg/mL
MSSA MIC [4]: > 32 µg/mL
VSE MIC (VSE): > 32 µg/mL
PMM TC50 [5]: 18.3 µg/mL

c1ccc(-c2nc3ccccc3n2-c2ccc(N3CCOCC3)cc2)nc1 [OSA_000995]
MRC5 TC50 ([1]; MRC5 cells): 64 µM
MIC ([2]; read-out: VRE MIC (UCL)): > 32 µg/mL
MIC ([3]; UCL, read-out: MRSA MIC (UCL)): > 32 µg/mL
MIC ([4]; read-out: MSSA MIC (UCL)): > 32 µg/mL
MIC (VSE; read-out: VSE MIC (UCL)): > 32 µg/mL
PMM TC50 ([5]; PMM): 64 µM

COc1ccc2nc(-c3ccccn3)c(N(C)c3cc(F)cc(F)c3)n2c1 [compound 998]
VRE MIC [2]: 32 µg/mL
MRSA MIC [3]: 8 µg/mL
MSSA MIC [4]: 8 µg/mL
VSE MIC (VSE): 16 µg/mL

NC(=O)c1ccc(-n2c(-c3ccccn3)nc3ccccc32)cc1 [OSA_000989]
MRC5 TC50 ([1]; MRC5 cells): 64 µM
MIC ([2]; read-out: VRE MIC (UCL)): > 32 µg/mL
MIC ([3]; UCL, read-out: MRSA MIC (UCL)): > 32 µg/mL
MIC ([4]; read-out: MSSA MIC (UCL)): > 32 µg/mL
MIC (VSE; read-out: VSE MIC (UCL)): > 32 µg/mL
PMM TC50 ([5]; PMM): 64 µM

N#Cc1ccc(-n2c(-c3ccccn3)nc3ccccc32)cc1 [OSA_000990]
MRC5 TC50 ([1]; MRC5 cells): 64 µM
MIC ([2]; read-out: VRE MIC (UCL)): > 32 µg/mL
MIC ([3]; UCL, read-out: MRSA MIC (UCL)): > 32 µg/mL
MIC ([4]; read-out: MSSA MIC (UCL)): > 32 µg/mL
MIC (VSE; read-out: VSE MIC (UCL)): > 32 µg/mL
PMM TC50 ([5]; PMM): 64 µM

Clc1ccn2c(-c3ccc4occc4c3)c(-c3ccccn3)nc2c1 [OSA_000985]
MIC ([2]; read-out: VRE MIC (UCL)): 16 µg/mL (≈ 46.3 µM)
MIC ([3]; UCL, read-out: MRSA MIC (UCL)): 8 µg/mL (≈ 23.1 µM)
MIC ([4]; read-out: MSSA MIC (UCL)): 8 µg/mL (≈ 23.1 µM)
MIC (VSE; read-out: VSE MIC (UCL)): 16 µg/mL (≈ 46.3 µM)

N#Cc1ccc(-c2c(-c3ccccn3)nc3n2CCC3)cc1 [OSA_000975]
MRC5 TC50 ([1]; MRC5 cells): 25.9 µM
MIC ([2]; read-out: VRE MIC (UCL)): 16 µg/mL (≈ 55.9 µM)
MIC ([3]; UCL, read-out: MRSA MIC (UCL)): 4 µg/mL (≈ 14 µM)
fraction unbound [6]: 0.29
Aqueous Solubility (NEU) (Aqueous solubility): 38 µM
PMM TC50 ([5]; PMM): 64 µM
HLM CLint (NEU) [7]: 99.1 uL/min/mg protein
Rat Hep CLint (NEU) [8]: 7.99 uL/min/10x6 cells

COc1ccnc(-c2nc3cc(OC)ccn3c2N(C)c2ccc(F)cc2)c1 [compound 1000]
VRE MIC [2]: 8 µg/mL
MRSA MIC [3]: 2 µg/mL
MSSA MIC [4]: 8 µg/mL
VSE MIC (VSE): 8 µg/mL

c1ccc(-c2nc3ccccc3n2-c2ccc(N3CCCCC3)cc2)nc1 [OSA_000994]
MRC5 TC50 ([1]; MRC5 cells): 19.81 µM
MIC ([2]; read-out: VRE MIC (UCL)): 32 µg/mL (≈ 90.3 µM)
MIC ([3]; UCL, read-out: MRSA MIC (UCL)): 16 µg/mL (≈ 45.1 µM)
MIC ([4]; read-out: MSSA MIC (UCL)): 32 µg/mL (≈ 90.3 µM)
MIC (VSE; read-out: VSE MIC (UCL)): 32 µg/mL (≈ 90.3 µM)
PMM TC50 ([5]; PMM): 15.32 µM

N#Cc1ccc(-n2c(-c3ccccn3)nc3ccccc32)cc1 [compound 990]
MRC5 TC50 [1]: 19.0 µg/mL
VRE MIC [2]: > 32 µg/mL
MRSA MIC [3]: > 32 µg/mL and 32 µg/mL
MSSA MIC [4]: > 32 µg/mL
VSE MIC (VSE): > 32 µg/mL
PMM TC50 [5]: 19.0 µg/mL

OC1CCn2c1nc(-c1ccccn1)c2-c1ccc2occc2c1 (centres unmarked) [compound 997]
MIC ([2]; read-out: VRE MIC): > 32 µg/mL
MIC ([2]; read-out: VRE MIC (UCL)): > 32 µg/mL
activity against MRSA, in words [3]: inactive
MIC ([3]; 16 h, read-out: MRSA MIC): > 32 µg/mL
MIC ([3]; UCL, read-out: MRSA MIC (UCL)): > 32 µg/mL
MIC ([3]; read-out: MRSA MIC): > 32 µg/mL
MIC ([4]; read-out: MSSA MIC): > 32 µg/mL
MIC ([4]; read-out: MSSA MIC (UCL)): > 32 µg/mL
MIC (VSE; read-out: VSE MIC): > 32 µg/mL
MIC (VSE; read-out: VSE MIC (UCL)): > 32 µg/mL

N#CCc1ccc(-n2c(-c3ccccn3)nc3ccccc32)cc1 [compound 996]
MRC5 TC50 [1]: 19.9 µg/mL
VRE MIC [2]: > 32 µg/mL
MRSA MIC [3]: > 32 µg/mL and 32 µg/mL
MSSA MIC [4]: 32 µg/mL
VSE MIC (VSE): > 32 µg/mL
PMM TC50 [5]: 19.9 µg/mL

CC(C)CN(c1ccc(F)cc1)c1c(-c2ccccn2)nc2ccccn12 [OSA_000983]
MRC5 TC50 ([1]; MRC5 cells): 54 µM
MIC ([2]; read-out: VRE MIC (UCL)): 8 µg/mL (≈ 22.2 µM)
MIC ([3]; UCL, read-out: MRSA MIC (UCL)): 2 µg/mL (≈ 5.55 µM)
fraction unbound [6]: 0.0042
Aqueous Solubility (NEU) (Aqueous solubility): 8 µM
MIC ([4]; read-out: MSSA MIC (UCL)): 4 µg/mL (≈ 11.1 µM)
PMM TC50 ([5]; PMM): 23 µM
HLM CLint (NEU) [7]: 58.8 uL/min/mg protein
Rat Hep CLint (NEU) [8]: 234 uL/min/10x6 cells

c1ccc(-c2nc3ccccc3n2-c2ccc3occc3c2)nc1 [OSA_000991]
MRC5 TC50 ([1]; MRC5 cells): 64 µM
MIC ([2]; read-out: VRE MIC (UCL)): > 32 µg/mL
MIC ([3]; UCL, read-out: MRSA MIC (UCL)): > 32 µg/mL
MIC ([4]; read-out: MSSA MIC (UCL)): > 32 µg/mL
MIC (VSE; read-out: VSE MIC (UCL)): > 32 µg/mL
PMM TC50 ([5]; PMM): 38.63 µM

Fc1ccc(-c2c(-c3ccccn3)nc3ccccn23)cn1 [compound 986]
MIC ([2]; read-out: VRE MIC): > 32 µg/mL
activity against MRSA, in words [3]: inactive
MIC ([3]; read-out: MRSA MIC): > 32 µg/mL
MIC ([4]; read-out: MSSA MIC): > 32 µg/mL
MIC (VSE; read-out: VSE MIC): > 32 µg/mL

— PMC10714399, “Open Source Antibiotics: Simple Diarylimidazoles Are Potent against Methicillin-Resistant Staphylococcus aureus” (ACS Infectious Diseases, 2023)
